Like-named read-outs stand apart in the source and are kept apart here.
How the values were obtained:
[1] = In vitro dissolution, USP Paddle over Disk apparatus (USP apparatus 5); type: physicochemical; details: M207 1.9 mg patch
Protocol: In vitro dissolution of […] 1.9 mg patches were evaluated using standard USP Paddle over Disk apparatus (USP apparatus 5) with Distek […] 6-position dissolution tester. The paddle height was set at 25 mm above patch and rotated at 50 RPM. An USP vessel was filled with degassed 500 mL PBS dissolution medium and the temperature was controlled at 32° C. A full patch assembly containing the coated patch adhered to the center of an inner ring and then attached to an outer ring was inserted along the vessel wall into the vessel with the coated microprojections facing upright. […] […] patches stored at room temperature and at 40° C./75% relative humidity for 10 months were evaluated.

[2] = clinical; details: both, human, in vivo; for AUC(0-inf): AUCinf
Protocol: The final treatment administered was 3.8 mg on a 10 cm^2 patch using an applicator with 0.52 Joule of application energy in the intracutaneous microneedle system described herein. The products tested were:
This was a single-center, open-label, randomized five-way crossover study (Part 1) followed by a sequential study of two additional treatments (Parts 2 and 3). After obtaining informed consent and establishing eligibility, each subject received each of the seven study treatments once, followed by in-clinic monitoring and extensive blood sample collection for pharmacokinetic analysis. […] Plasma samples from the initial dosing days were sent to the analytical laboratory for analysis, and tolerability for each of the dose levels was summarized. […] During Part 3, subjects received a single 3.8 mg patch (applied with a 0.52 J applicator) and also completed identical procedures to the previous dosing days. After completion of the seven dosing days, subjects were assessed one final time and dismissed from the study.
Twenty subjects were enrolled in the study, 10 males and 10 females. The subjects mean age was 29 years±3.5 years with a mean BMI of 24.4±3.5.
PK parameters were summarized by treatment group using descriptive statistics (arithmetic means, standard deviations, coefficients of variation, sample size, minimum, maximum, and median).
Graphs of apparent dose linearity and proportionality of PK parameters (AUCt, AUCinf and Cmax) were compiled.

[3] = 10 mg oral, Seaber1997, cited from earlier work
[4] = system: migraine; details: cited from earlier work
[5] = NASAL 2.5 mg, 1 hour, Charlesworth et al, 2003
[6] = NASAL 2.5 mg, 2 hour, Charlesworth et al, 2003
[7] = NASAL 2.5 mg, 4 hour, Charlesworth et al, 2003
[8] = ODT 2.5 mg, 1 hour, Dowson et al, 2002
[9] = ODT 2.5 mg, 2 hour, Dowson et al, 2002
[10] = TABLET 2.5 mg, 1 hour, Pascual et al, 2000
[11] = TABLET 2.5 mg, 1 hour, Steiner et al, 2003
[12] = TABLET 2.5 mg, 2 hour, Pascual et al, 2000
[13] = TABLET 2.5 mg, 2 hour, Steiner et al, 2003
[14] = TABLET 5 mg, 1 hour, Dahlof et al 1998
[15] = TABLET 5 mg, 1 hour, Geraud et al, 2000
[16] = TABLET 5 mg, 2 hour, Dahlof et al 1998
[17] = TABLET 5 mg, 2 hour, Geraud et al, 2000
[18] = TABLET 5 mg, 4 hour, Geraud et al, 2000
[19] = TABLET 10 mg, 1 hour, Dahlof et al 1998
[20] = TABLET 10 mg, 2 hour, Dahlof et al 1998

CN(C)CCc1c[nH]c2ccc(C[C@H]3COC(=O)N3)cc12 [Zolmitriptan, zolmitriptan]
Percent Dissolution (% D) ([1]; E-beam irradiated, stored at 40° C./75% RH for 10 months, 0 s): 0% | Percent Dissolution (% D) ([1]; E-beam irradiated, stored at 40° C./75% RH for 10 months, 20 s): 5-10% | Percent Dissolution (% D) ([1]; E-beam irradiated, stored at 40° C./75% RH for 10 months, 40 s): 10-50% | Percent Dissolution (% D) ([1]; E-beam irradiated, stored at 40° C./75% RH for 10 months, 60 s): 50-100% | Percent Dissolution (% D) ([1]; E-beam irradiated, stored at 40° C./75% RH for 10 months, 80 s): 100% | Percent Dissolution (% D) ([1]; E-beam irradiated, stored at 40° C./75% RH for 10 months, 100 s): 100% | Percent Dissolution (% D) ([1]; E-beam irradiated, stored at RT for 10 months, 0 s): 0% | Percent Dissolution (% D) ([1]; E-beam irradiated, stored at RT for 10 months, 20 s): 60-80% | Percent Dissolution (% D) ([1]; E-beam irradiated, stored at RT for 10 months, 40 s): 90-100% | Percent Dissolution (% D) ([1]; E-beam irradiated, stored at RT for 10 months, 60 s): 100% | Percent Dissolution (% D) ([1]; E-beam irradiated, stored at RT for 10 months, 80 s): 100% | Percent Dissolution (% D) ([1]; E-beam irradiated, stored at RT for 10 months, 100 s): 100% | Percent Dissolution (% D) ([1]; non-irradiated, stored at 40° C./75% RH for 10 months, 0 s): 0% | Percent Dissolution (% D) ([1]; non-irradiated, stored at 40° C./75% RH for 10 months, 20 s): 0% | Percent Dissolution (% D) ([1]; non-irradiated, stored at 40° C./75% RH for 10 months, 40 s): 10-40% | Percent Dissolution (% D) ([1]; non-irradiated, stored at 40° C./75% RH for 10 months, 60 s): 90-100% | Percent Dissolution (% D) ([1]; non-irradiated, stored at 40° C./75% RH for 10 months, 80 s): 100% | Percent Dissolution (% D) ([1]; non-irradiated, stored at 40° C./75% RH for 10 months, 100 s): 100% | Tmax, Mean (SD) [2]: 17.10 (11.82) | Tmax, Median [2]: 17.5 min | t1/2, Mean (SD) [2]: 91.70 (18.7) | t1/2, Median [2]: 96.2 min | AUC(0-t) ([2]; 0.48 mg, AUC2 hrs, Mean (SD)): 2.11 ng·h/mL | AUC(0-t) ([2]; 0.48 mg, AUC2 hrs, Median): 2.11 ng·h/mL | AUC(0-inf) ([2]; 0.48 mg, Mean (SD)): 3.81 ng·h/mL | AUC(0-inf) ([2]; 0.48 mg, Median): 3.78 ng·h/mL | AUC(0-t) ([2]; 0.48 mg, AUCt, Mean (SD)): 2.81 ng·h/mL | AUC(0-t) ([2]; 0.48 mg, AUCt, Median): 2.78 ng·h/mL | Cmax ([2]; 0.48 mg, Mean (SD)): 1.84 ng/mL | Cmax ([2]; 0.48 mg, Median): 1.8 ng/mL | Tmax ([2]; 0.48 mg, Tmax, Mean (SD)): 17.3 min | Tmax ([2]; 0.48 mg, Tmax, Median): 20 min | half-life ([2]; 0.48 mg, t1/2, Mean (SD)): 69.1 min | half-life ([2]; 0.48 mg, t1/2, Median): 64.6 min | AUCinf, Median ([2]; 1.9 mg): 14.5 ng·h/mL | AUC(0-t) ([2]; 1.9 mg, AUC2 hrs, Mean (SD)): 7.36 ng·h/mL | AUC(0-t) ([2]; 1.9 mg, AUC2 hrs, Median): 7.75 ng·h/mL | AUC(0-inf) ([2]; 1.9 mg, Mean (SD)): 14.1 ng·h/mL | AUC(0-t) ([2]; 1.9 mg, AUCt, Mean (SD)): 12.3 ng·h/mL | AUC(0-t) ([2]; 1.9 mg, AUCt, Median): 12.7 ng·h/mL | Cmax ([2]; 1.9 mg, Mean (SD)): 6.76 ng/mL | Cmax ([2]; 1.9 mg, Median): 6.4 ng/mL | Tmax ([2]; 1.9 mg, Tmax, Mean (SD)): 17.9 min | Tmax ([2]; 1.9 mg, Tmax, Median): 20 min | half-life ([2]; 1.9 mg, t1/2, Mean (SD)): 87.8 min | half-life ([2]; 1.9 mg, t1/2, Median): 84.7 min | t1/2, Mean (SD) ([2]; 3.8 mg): 91.00 (18.80) | AUC(0-t) ([2]; 3.8 mg, AUC2 hrs, Mean (SD)): 19.3 ng·h/mL | AUC(0-t) ([2]; 3.8 mg, AUC2 hrs, Median): 18.4 ng·h/mL | AUC(0-inf) ([2]; 3.8 mg, Mean (SD)): 33.8 ng·h/mL | AUC(0-inf) ([2]; 3.8 mg, Median): 32.2 ng·h/mL | AUC(0-t) ([2]; 3.8 mg, AUCt, Mean (SD)): 31.6 ng·h/mL | AUC(0-t) ([2]; 3.8 mg, AUCt, Median): 29.9 ng·h/mL | Cmax ([2]; 3.8 mg, Mean (SD)): 22.6 ng/mL | Cmax ([2]; 3.8 mg, Median): 19.9 ng/mL | Tmax ([2]; 3.8 mg, Tmax, Mean (SD)): 16.1 min | Tmax ([2]; 3.8 mg, Tmax, Median): 15 min | half-life ([2]; 3.8 mg, t1/2, Median): 87.2 min | Tmax ([2]; Tmax, Mean (SD)): 18.4 min | Tmax ([2]; Tmax, Median): 20 min | Tmax ([2]; mean Tmax): 16.1 to 18.4 min | Cmax ([2]; po, 2.5 mg, Median): 3.7 ng/mL | half-life ([2]; t1/2, Mean (SD)): 77.2 min | half-life ([2]; t1/2, Median): 82 min | AUC0-last ([3]; (F)): 108.6 ng·h/mL | Cmax ([3]; (F)): 20.9 ng/mL | AUC0-last ([3]; (M)): 84.4 ng·h/mL | Cmax ([3]; (M)): 16.6 ng/mL | % PAIN FREE [4, 5]: 10.6% | % PAIN RELIEF [4, 5]: 40.2% | % PAIN FREE [4, 6]: 21.0% | % PAIN RELIEF [4, 6]: 55.4% | % PAIN FREE [4, 7]: 38.4% | % PAIN RELIEF [4, 7]: 63.4% | % PAIN FREE [4, 8]: 7.8% | % PAIN RELIEF [4, 8]: 45.0% | % PAIN FREE [4, 9]: 27.0% | % PAIN RELIEF [4, 9]: 63.0% | % PAIN FREE ([4]; ODT 2.5 mg, 4 hour, Dowson et al, 2002): 37.0% | % PAIN FREE [4, 10]: 10.4% | % PAIN RELIEF [4, 10]: 35.3% | % PAIN FREE [4, 11]: 5.7% | % PAIN RELIEF [4, 11]: 25.1% | % PAIN FREE [4, 12]: 35.6% | % PAIN RELIEF [4, 12]: 66.8% | % PAIN FREE [4, 13]: 26.3% | % PAIN RELIEF [4, 13]: 59.6% | % PAIN RELIEF ([4]; TABLET 2.5 mg, 4 hour, Steiner et al, 2003): 25.1% | % PAIN FREE [4, 14]: 10.0% | % PAIN RELIEF [4, 14]: 44.0% | % PAIN FREE [4, 15]: 7.8% | % PAIN RELIEF [4, 15]: 34.2% | % PAIN FREE [4, 16]: 39.0% | % PAIN RELIEF [4, 16]: 66.0% | % PAIN FREE [4, 17]: 29.3% | % PAIN RELIEF [4, 17]: 58.7% | % PAIN FREE [4, 18]: 54.6% | % PAIN RELIEF [4, 18]: 80.5% | % PAIN FREE [4, 19]: 9.0% | % PAIN RELIEF [4, 19]: 40.0% | % PAIN FREE [4, 20]: 39.0% | % PAIN RELIEF [4, 20]: 71.0% | pain freedom at 2 hours ([4]; lowest oral dose): 29% | pain relief at 2 hours ([4]; lowest oral dose): 62%

— US11839683B2, “Method of rapidly achieving therapeutic concentrations of triptans for treatment of migraines” (EMERGEX USA CORPORATION, priority 2016, dated 2023)
